ChEMBL document CHEMBL1145171, “Synthesis, biological evaluation, and molecular modeling investigation of new chiral fibrates with PPARalpha and PPARgamma agonist activity” (J Med Chem, 2005)

How the values were obtained:
[1] = target: T1, Peroxisome proliferator-activated receptor alpha (Mus musculus, UniProt P23204); test: Effective concentration against murine PPARalpha in transactivation assay
T1 sequence (P23204 whole entry): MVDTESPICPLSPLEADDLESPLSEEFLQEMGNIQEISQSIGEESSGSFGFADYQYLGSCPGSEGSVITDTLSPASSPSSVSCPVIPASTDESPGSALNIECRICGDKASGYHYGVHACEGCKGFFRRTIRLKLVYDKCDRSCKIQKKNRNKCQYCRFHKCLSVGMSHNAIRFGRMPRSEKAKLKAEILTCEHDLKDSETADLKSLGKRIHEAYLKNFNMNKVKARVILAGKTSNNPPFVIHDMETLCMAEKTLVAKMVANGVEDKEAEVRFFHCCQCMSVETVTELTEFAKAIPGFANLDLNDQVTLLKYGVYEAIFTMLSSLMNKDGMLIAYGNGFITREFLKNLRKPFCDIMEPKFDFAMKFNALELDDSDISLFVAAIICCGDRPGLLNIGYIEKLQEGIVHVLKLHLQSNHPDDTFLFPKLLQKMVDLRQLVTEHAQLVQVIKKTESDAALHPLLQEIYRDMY

[2] = target: T2, Peroxisome proliferator-activated receptor alpha (Mus musculus) (UniProt P23204); test: Efficacy against murine PPARalpha relative to Wy-14,643
T2 sequence (whole entry): T1 sequence (P23204 whole entry)

[3] = target: T3, Peroxisome proliferator-activated receptor alpha (Homo sapiens) (UniProt Q07869); test: Efficacy against human PPARalpha expressed in HepG2 cells relative to Wy-14,643; type: cell-based
T3 sequence (whole entry): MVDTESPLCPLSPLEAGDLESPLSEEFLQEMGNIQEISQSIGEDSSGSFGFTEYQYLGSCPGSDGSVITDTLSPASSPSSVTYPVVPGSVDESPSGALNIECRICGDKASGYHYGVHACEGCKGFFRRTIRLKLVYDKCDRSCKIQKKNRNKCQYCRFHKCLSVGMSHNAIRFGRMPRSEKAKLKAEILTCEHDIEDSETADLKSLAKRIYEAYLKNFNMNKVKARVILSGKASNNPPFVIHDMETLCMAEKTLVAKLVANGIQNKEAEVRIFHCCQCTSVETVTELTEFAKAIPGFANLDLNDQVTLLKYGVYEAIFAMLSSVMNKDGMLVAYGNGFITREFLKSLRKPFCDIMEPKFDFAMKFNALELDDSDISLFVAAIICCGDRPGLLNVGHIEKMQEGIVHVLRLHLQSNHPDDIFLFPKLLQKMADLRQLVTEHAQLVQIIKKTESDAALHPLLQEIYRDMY

[4] = target: T4, Peroxisome proliferator-activated receptor alpha (Homo sapiens, UniProt Q07869); test: Effective concentration against human PPARalpha expressed in HepG2 cells; type: cell-based
T4 sequence (Q07869 whole entry): T3 sequence (whole entry)

[5] = target: T5, Peroxisome proliferator-activated receptor gamma (Homo sapiens, UniProt P37231)
T5 sequence (P37231 whole entry): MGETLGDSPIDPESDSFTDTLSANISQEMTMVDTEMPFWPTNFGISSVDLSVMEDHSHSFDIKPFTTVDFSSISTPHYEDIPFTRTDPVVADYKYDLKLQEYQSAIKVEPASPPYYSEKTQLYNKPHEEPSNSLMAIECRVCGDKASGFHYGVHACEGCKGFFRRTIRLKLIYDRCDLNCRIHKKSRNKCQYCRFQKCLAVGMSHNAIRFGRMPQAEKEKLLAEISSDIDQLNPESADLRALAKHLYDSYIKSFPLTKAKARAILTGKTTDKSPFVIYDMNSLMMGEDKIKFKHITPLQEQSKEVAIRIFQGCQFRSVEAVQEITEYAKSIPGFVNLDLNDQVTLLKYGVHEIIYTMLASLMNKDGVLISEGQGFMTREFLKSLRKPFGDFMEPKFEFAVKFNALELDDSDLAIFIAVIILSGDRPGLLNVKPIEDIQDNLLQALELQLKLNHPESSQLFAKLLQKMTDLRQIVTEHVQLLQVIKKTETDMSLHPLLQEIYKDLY

[6] = target: T5, Peroxisome proliferator-activated receptor gamma; test: Effective concentration against human PPARgamma expressed in HepG2 cells; i.a = inactive at tested concentration; type: cell-based
[7] = target: T4, Peroxisome proliferator-activated receptor alpha; test: Effective concentration against human PPARalpha expressed in HepG2 cells; i.a = inactive at tested concentration; type: cell-based

Row | Structure (SMILES) | EC50 [1] | Efficacy [2] | Efficacy [3] | EC50 [4] | EC50 [5] | EC50 [6] | EC50 [7]
1 | CCC[C@H](OCc1ccc(-c2ccc(Cl)cc2)cc1)C(=O)O |  |  | 29.8 | 3.9 µM | 8.9 µM |  | 
2 | O=C(O)[C@H](Cc1ccccc1)Oc1ccc(Cl)cc1 | 1.3 µM | 49.1 | 99.4 | 3.9 µM | 2.7 µM |  | 
3 | O=C(O)[C@H](Cc1ccccc1)Oc1ccc(C(F)(F)F)cc1 | 0.27 µM | 107 | 80.7 | 0.5 µM | 0.9 µM |  | 
4 | O=C(O)[C@@H](Cc1ccccc1)Oc1ccc(Cl)cc1 |  |  | 14.3 | 10.9 µM | 10.5 µM |  | 
5 | Cc1cccc(Nc2cc(Cl)nc(SCC(=O)O)n2)c1C [PIRINIXIC ACID] |  | 100 | 100 |  |  | Not Active | 
6 | O=C(O)[C@H](Cc1ccccc1)Oc1ccc2ccccc2c1 |  |  | 130 | 1.4 µM | 1.5 µM |  | 
7 | CN(CCOc1ccc(CC2SC(=O)NC2=O)cc1)c1ccccn1 (centres undefined) [ROSIGLITAZONE] |  |  |  |  |  |  | Not Active

The next lines start with results.

Row | EC50 [1] | Efficacy [2] | Efficacy [3] | EC50 [4] | EC50 [5] | Structure (SMILES) | EC50 [6] | EC50 [7]
8 | 0.2 µM | 99.3 | 124 |  |  | O=C(O)[C@H](Cc1ccccc1)Oc1ccc(-c2ccccc2)cc1 |  | 
9 |  |  | 38.2 | 28.7 µM | 25.7 µM | O=C(O)[C@H](Cc1ccccc1)Oc1ccc(CO)cc1 |  | 
10 | 42 µM | 67.2 | 89.7 | 39.6 µM | 309 µM | CC(C)(Oc1ccc(Cl)cc1)C(=O)O [CLOFIBRIC ACID] |  | 
11 |  |  | 95.6 | 8.4 µM | 7.2 µM | CCC[C@H](Oc1ccc2ccccc2c1)C(=O)O |  | 
12 |  |  | 68.3 | 13.5 µM | 12.4 µM | CC(=O)c1ccc(O[C@@H](Cc2ccccc2)C(=O)O)cc1 |  | 
13 |  |  | 36.6 | 4 µM | 5.4 µM | CCC[C@@H](OCc1ccc(-c2ccc(Cl)cc2)cc1)C(=O)O |  | 
14 | 0.35 µM | 127 | 114 | 0.7 µM | 3.6 µM | CCc1ccc(O[C@@H](Cc2ccccc2)C(=O)O)cc1 |  | 
15 |  |  | 80.7 | 2.5 µM | 20.1 µM | COc1ccc(O[C@@H](Cc2ccccc2)C(=O)O)cc1 |  | 
16 | 0.15 µM | 70.7 | 93.2 | 0.9 µM | 1.6 µM | O=C(O)[C@H](Cc1ccccc1)Oc1ccc(-c2cccs2)cc1 |  | 
17 |  |  | 10.5 | 3.9 µM | 12.5 µM | CCC[C@@H](Oc1ccc2ccccc2c1)C(=O)O |  | 
